For one test, the target named is T1, Gal4-RORγ-LBD (Homo sapiens, UniProt P51449).
T1 construct: expressed in transfected cells
T1 sequence (P51449 269-508 limits assumed): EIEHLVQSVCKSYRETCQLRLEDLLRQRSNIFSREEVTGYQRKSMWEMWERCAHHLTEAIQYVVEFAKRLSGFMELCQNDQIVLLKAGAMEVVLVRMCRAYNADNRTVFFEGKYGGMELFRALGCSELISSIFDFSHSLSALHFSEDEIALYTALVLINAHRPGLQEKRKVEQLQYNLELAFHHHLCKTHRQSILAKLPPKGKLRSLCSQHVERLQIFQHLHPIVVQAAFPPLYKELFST
As to the kind of experiment: Gal4-RORγ Luciferase Reporter Assay in HEK-293T Cells. Conditions: HEK-293 cells, luciferase reporter; for Gal4-RORγ Assay Max Response: maximum response. In kind it is cell-based. How it is done: Assay procedures and results are described below.
In the following protocol, HEK-293 cells were transfected with a construct comprising the Gal4 DNA binding domain fused to the ligand binding domain of RORγ (Gal4-RORγ-LBD) in a pcDNA3.1neo plasmid, and also with a reporter construct comprising pGL4.31 Gal4-luciferase (Promega). Control cells were prepared similarly using empty pcDNA3.1neo and pGL4.31 vectors.
Trans-IT reagent (Mirus, 60 μL) at room temperature was added drop wise to OptiMEM (Invitrogen, 1.5 ml). This reagent mixture was mixed by inversion then incubated for 5 to 30 minutes at room temperature. It then was added to a solution of both expression vectors (5 μg each), mixed, and incubated at room temperature for about 20 minutes. HEK-293 cells were harvested from incubation flasks by removing the media, treating with TrypLE Express (Invitrogen), and incubating until the cells detached from the bottom of the flask (approximately 2-5 minutes). 10 Million cells were collected by centrifugation and re-suspended in 10 mL of Dulbecco's Modified Eagle Medium, High Glucose (DMEM, Invitrogen) containing 10% Fetal Bovine Serum and 100 IU each of penicillin and streptomycin. The re-suspended cells and the transfection mixture were added to a T75 flask, mixed and incubated overnight at 37° C. and 5% CO2.
The cells were harvested as described above, counted, and centrifuged to obtain the desired number of cells, then re-suspended in complete growth media at 0.75×10^6 cells/mL. The RORγ antagonist, ursolic acid, was added to the cells at a final concentration of […]. Cells were plated at 20 µL of cell suspension/well (10,000-15,000 cells/well) in white tissue culture treated 384 well plates. Test compounds were dissolved at 10 mM in DMSO then diluted into complete growth medium to 5× the final intended test concentration. These drug stock solutions, 5 µL/well were added to the tissue culture plate. The final DMSO concentration was 0.2%. The plates were briefly centrifuged then incubated overnight at 37° C. and 5% CO2. To conduct the assay, the tissue culture plates were allowed to equilibrate to room temperature and One-Glo luciferase reagent (Promega, 25 µL/well) was added. The plates were briefly centrifuged then incubated at room temperature for 10 minutes. The luciferase intensity was read on an Envision plate reader (Perkin Elmer). […] The luciferase signal in the absence of ursolic acid or test compound is defined at 100. The Max Response is the upper plateau in the signal as determined by line-fit using a 4-parameter logistic model in PRISM (GraphPad).

Another test addresses T2, RORγ-LBD (Homo sapiens, UniProt P51449).
T2 construct: made in house; host or cells: SF9 cells (baculovirus); used as diluted lysate
T2 sequence (P51449 269-508 limits assumed): T1 sequence (P51449 269-508 limits assumed)
As to the kind of experiment: RORγ-Ligand Binding Domain (LBD) TR-FRET Assay.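 On TR-FRET Assay Max Response: 665/615 nm signal ratio set to 100 without ursolic acid or test compound.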 The following applies: for TR-FRET Assay Max Response: maximum response. In kind it is biochemical. An outline of the steps:
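Compounds, diluted in DMSO and then in assay buffer (1% DMSO final), were combined with His-tagged RORγ-LBD lysate at roughly 3 nM final and a 200 nM biotinylated SRC1 LXXLL peptide. Ursolic acid was included at 2 μM final. Coactivator recruitment was detected by TR-FRET.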

One may read the EC50 as the concentration needed to bring the measured effect to its halfway point. Regarding `C[C@@H]1[C@@H](O)Cc2ccc(/C=C/c3c(F)cccc3Cl)cc2N1S(=O)(=O)c1cccc(C(F)(F)F)c1` (racemic) [Example 176, rac-(2R,3S)-7-((E)-2-Chloro-6-fluorostyryl)-2-methyl-1-((3-(trifluoromethyl)phenyl)sulfonyl)-1,2,3,4-tetrahydroquinolin-3-ol], at Gal4-RORγ-LBD (in presence of ursolic acid), the EC50 was in the range of 0.5 to 5 µM and the “Gal4-RORγ Assay Max Response” value is “** (a value in the range of greater than 90 to 150)”. Further, on RORγ-LBD (RORγ-LBD TR-FRET assay), the EC50 is < 0.5 µM and the “TR-FRET Assay Max Response” value is reported as “*** (a value in the range of greater than 150 to 200)”.

With `C/C(=C\c1ccc2c(c1)N(S(=O)(=O)c1cccc(C(F)(F)F)c1)[C@H](C)[C@@H](O)C2)c1c(F)cccc1Cl` (racemic) [Example 177, rac-(2R,3S)-7-((E)-2-(2-Chloro-6-fluorophenyl)prop-1-en-1-yl)-2-methyl-1-((3-(trifluoromethyl)phenyl)sulfonyl)-1,2,3,4-tetrahydroquinolin-3-ol], on Gal4-RORγ-LBD (in presence of ursolic acid), the EC50 fell in the range of 0.5 to 5 µM and the “Gal4-RORγ Assay Max Response” value is recorded as “** (a value in the range of greater than 90 to 150)”. Moreover, on RORγ-LBD (RORγ-LBD TR-FRET assay), the EC50 was < 0.5 µM and the “TR-FRET Assay Max Response” value is recorded as “** (a value in the range of greater than 90 to 150)”.

For the compound `COc1cc(S(=O)(=O)N2CCCc3ccc(O[C@@H]4c5ccccc5C[C@H]4C)cc32)ccc1F` (relative stereo) [Example 25E, 1-((4-fluoro-3-methoxyphenyl)sulfonyl)-7-(((trans)-2-methyl-2,3-dihydro-1H-inden-1-yl)oxy)-1,2,3,4-tetrahydroquinoline], the concentration for a half-maximal effect (EC50) at Gal4-RORγ-LBD (with ursolic acid) is 0.5 to 5 µM; on RORγ-LBD (RORγ-LBD TR-FRET), < 0.5 µM.

For `O=C(O)CC[C@H]1CC(S(=O)(=O)c2cccc(C(F)(F)F)c2)c2cc(OCc3c(F)cccc3Cl)ccc2O1` (stereo in doubt) [Example 186A, 3-(6-((2-chloro-6-fluorobenzyl)-oxy)-4-((3-(trifluoromethyl)-phenyl)sulfonyl)chroman-2-yl)propanoic acid], the EC50 at Gal4-RORγ-LBD (in presence of ursolic acid) was 0.5 to 5 µM; at RORγ-LBD (RORγ-LBD TR-FRET assay), < 0.5 µM.

In the case of `C/C(=C\c1ccc2c(c1)N(S(=O)(=O)c1cccc(C(F)(F)F)c1)CC(C(=O)O)C2)c1c(F)cccc1C(F)(F)F` (stereo not shown) [Example 15C, (E)-7-(2-(2-fluoro-6-(trifluoromethyl)phenyl)prop-1-en-1-yl)-1-((3-(trifluoromethyl)phenyl)sulfonyl)-1,2,3,4-tetrahydroquinoline-3-carboxylic acid], the EC50 is 0.5 to 5 µM on Gal4-RORγ-LBD (with ursolic acid) and < 0.5 µM at RORγ-LBD (RORγ-LBD TR-FRET).

For the compound `O=C(O)C1Cc2ccc(/C=C/c3c(Cl)cccc3C(F)(F)F)cc2N(S(=O)(=O)c2cccc(C(F)(F)F)c2)C1` (stereo not shown) [Example 15D, (E)-7-(2-chloro-6-(trifluoromethyl)styryl)-1-((3-(trifluoromethyl)phenyl)sulfonyl)-1,2,3,4-tetrahydroquinoline-3-carboxylic acid], the values for the EC50 on Gal4-RORγ-LBD (with ursolic acid) and on RORγ-LBD (RORγ-LBD TR-FRET) were 0.5 to 5 µM and < 0.5 µM, respectively.

Turning to `COc1cc(S(=O)(=O)N2CCCc3ccc(OC4CCCc5ccccc54)cc32)ccc1F` (stereo not shown) [Example 25C, 1-((4-fluoro-3-methoxyphenyl)sulfonyl)-7-((1,2,3,4-tetrahydronaphthalen-1-yl)oxy)-1,2,3,4-tetrahydroquinoline], the EC50 at Gal4-RORγ-LBD (with ursolic acid) and on RORγ-LBD (RORγ-LBD TR-FRET) was < 0.5 µM each time.

In the case of `O=S(=O)(c1cccc(C(F)(F)F)c1)N1CCCc2cc(OCc3c(F)cccc3Cl)ccc21` [Example 25J, 6-((2-chloro-6-fluorobenzyl)oxy)-1-((3-(trifluoromethyl)phenyl)sulfonyl)-1,2,3,4-tetrahydroquinoline], the figures for the EC50 at Gal4-RORγ-LBD (with ursolic acid) and on RORγ-LBD (RORγ-LBD TR-FRET) were 0.5 to 5 µM and < 0.5 µM, respectively.

For `COc1cc(S(=O)(=O)N2CCCc3ccc(OCc4c(Cl)cccc4Cl)cc32)ccc1F` [Example 25P, 7-((2,6-dichlorobenzyl)oxy)-1-((4-fluoro-3-methoxyphenyl)sulfonyl)-1,2,3,4-tetrahydroquinoline], the EC50 on Gal4-RORγ-LBD (with ursolic acid) and on RORγ-LBD (RORγ-LBD TR-FRET) was < 0.5 µM throughout.

With `COc1cc(S(=O)(=O)N2CCCc3ccc(OCc4c(Cl)cccc4C(F)(F)F)cc32)ccc1F` [Example 25Q, 7-((2-chloro-6-(trifluoromethyl)benzyl)oxy)-1-((4-fluoro-3-methoxyphenyl)sulfonyl)-1,2,3,4-tetrahydroquinoline], the EC50 at Gal4-RORγ-LBD (with ursolic acid) and at RORγ-LBD (RORγ-LBD TR-FRET) was < 0.5 µM throughout.

As for `COc1cc(S(=O)(=O)N2CCCc3ccc(OCc4c(F)cccc4C(F)(F)F)cc32)ccc1F` [Example 25R, 1-((4-fluoro-3-methoxyphenyl)sulfonyl)-7-((2-fluoro-6-(trifluoromethyl)benzyl)oxy)-1,2,3,4-tetrahydroquinoline], the EC50 on Gal4-RORγ-LBD (with ursolic acid) and on RORγ-LBD (RORγ-LBD TR-FRET) was < 0.5 µM throughout.

For `COc1cc(S(=O)(=O)N2CCCc3ccc(OCc4c(C)cccc4Cl)cc32)ccc1F` [Example 25W, 7-((2-chloro-6-methylbenzyl)oxy)-1-((4-fluoro-3-methoxyphenyl)sulfonyl)-1,2,3,4-tetrahydroquinoline], the EC50 on Gal4-RORγ-LBD (with ursolic acid) and at RORγ-LBD (RORγ-LBD TR-FRET) was < 0.5 µM throughout.

In the case of `COC(=O)C(C)(C)C[C@@H]1Cc2ccc(OCc3c(F)cccc3Cl)cc2N(S(=O)(=O)c2ccc(F)c(OC)c2)C1` [Example 26, (S)-Methyl 3-(7-((2-chloro-6-fluorobenzyl)oxy)-1-((4-fluoro-3-methoxyphenyl)sulfonyl)-1,2,3,4-tetrahydroquinolin-3-yl)-2,2-dimethylpropanoate], the half-maximal effective concentration (EC50) on Gal4-RORγ-LBD (with ursolic acid) and on RORγ-LBD (RORγ-LBD TR-FRET) was < 0.5 µM throughout.

As for `COc1cc(S(=O)(=O)N2C[C@H](CC(C)(C)C(=O)O)Cc3ccc(OCc4c(F)cccc4Cl)cc32)ccc1F` [Example 27, (S)-3-(7-((2-Chloro-6-fluorobenzyl)oxy)-1-((4-fluoro-3-methoxyphenyl)sulfonyl)-1,2,3,4-tetrahydroquinolin-3-yl)-2,2-dimethylpropanoic acid], the EC50 on Gal4-RORγ-LBD (with ursolic acid) and on RORγ-LBD (RORγ-LBD TR-FRET) was < 0.5 µM in each case.

Consider `COC(=O)CC[C@H]1CN(S(=O)(=O)c2cccc(C(F)(F)F)c2)c2cc(/C(C)=C/c3c(F)cccc3Cl)ccc2O1` [Example 31, (S,E)-Methyl 3-(6-(1-(2-chloro-6-fluorophenyl)prop-1-en-2-yl)-4-((3-(trifluoromethyl)phenyl)sulfonyl)-3,4-dihydro-2H-benzo[b][1,4]oxazin-2-yl)propanoate], for which the EC50 on Gal4-RORγ-LBD (with ursolic acid) was 0.5 to 5 µM; at RORγ-LBD (RORγ-LBD TR-FRET), < 0.5 µM.

Turning to `C/C(=C\c1c(F)cccc1Cl)c1ccc2c(c1)N(S(=O)(=O)c1cccc(C(F)(F)F)c1)C[C@H](CCC(=O)O)O2` [Example 32, (S,E)-3-(6-(1-(2-Chloro-6-fluorophenyl)prop-1-en-2-yl)-4-((3-(trifluoromethyl)phenyl)sulfonyl)-3,4-dihydro-2H-benzo[b][1,4]oxazin-2-yl)propanoic acid], the EC50 on Gal4-RORγ-LBD (with ursolic acid) was 5 to 10 µM; on RORγ-LBD (RORγ-LBD TR-FRET), < 0.5 µM.

Take `CCOc1ncc(C(F)(F)F)cc1S(=O)(=O)N1C[C@H](CCC(=O)OC)Oc2ccc(/C=C(\C)c3c(F)cccc3Cl)cc21` [Example 33, (S,E)-Methyl 3-(6-(2-(2-chloro-6-fluorophenyl)prop-1-en-1-yl)-4-((2-ethoxy-5-(trifluoromethyl)pyridin-3-yl)sulfonyl)-3,4-dihydro-2H-benzo[b][1,4]oxazin-2-yl)propanoate]: the half-maximal effective concentration (EC50) at Gal4-RORγ-LBD (with ursolic acid) was 0.5 to 5 µM; at RORγ-LBD (RORγ-LBD TR-FRET) it was < 0.5 µM.

In the case of `CCOc1ncc(C(F)(F)F)cc1S(=O)(=O)N1C[C@H](CCC(=O)O)Oc2ccc(/C=C(\C)c3c(F)cccc3Cl)cc21` [Example 34, (S,E)-3-(6-(2-(2-Chloro-6-fluorophenyl)prop-1-en-1-yl)-4-((2-ethoxy-5-(trifluoromethyl)pyridin-3-yl)sulfonyl)-3,4-dihydro-2H-benzo[b][1,4]oxazin-2-yl)propanoic acid], the concentration giving a half-maximal response (EC50) is 0.5 to 5 µM on Gal4-RORγ-LBD (with ursolic acid) and < 0.5 µM on RORγ-LBD (RORγ-LBD TR-FRET).

For the origin of these results see patent US9896441B2 (Lycera Corporation, priority 2014, dated 2018).
